From US20140303092A1 (CHIMERIX, INC., priority 2011, published 2014)

Test: Study HDP-CDV-201: safety and tolerability (adverse events, laboratory abnormalities, discontinuations)
Format: in vivo, human (adult allogeneic HSCT recipients)
Procedure: Clinical Studies of HDP-CDV were performed and described in detail in the following Examples. For example, HDP-CDV-201 is a placebo-controlled, dose-escalating trial in HSCT CMV (R+) recipients, evaluating the ability of HDP-CDV to prevent or control CMV infection was carried out. Five cohorts were established in which participants or subjects received either placebo or the HDP-CDV orally, in doses ranging from 40 mg weekly (QW) to 200 mg twice weekly (BIW). Subjects who were post-HSCT were enrolled at the time of engraftment and randomized to HDP-CDV or placebo (3 to 1 ratio) and received blinded therapy until approximately 100 day post-transplantation. HDP-CDV doses were 40 mg QW, 100 mg QW, 200 mg QW, 200 mg BIW and 100 mg BIW. Escalation to the next dose was decided by the data monitoring committee after review of the safety data from the previous Cohort. Subjects who developed CMV disease or CMV infection requiring pre-emptive therapy with local standard of care were discontinued from blinded therapy and followed for 4 weeks. Subjects who completed treatment with blinded therapy were followed for 8 weeks post-therapy.
Data from Study HDP-CDV-201 also provided characterization of the safety and tolerability profile of HDP-CDV when administered for the prevention or control of CMV infection in high risk (R^+) post-HSCT adult subjects.
The Safety population (SAFETY) included all randomized subjects who took at least one dose of study treatment. This population was used to summarize safety outcomes based on the treatment actually received, in cases where a subject was treated contrary to the randomization schedule.
The safety and tolerability profile of HDP-CDV, including subject demographics and Baseline characteristics; the AE profile; and laboratory abnormalities of interest were analyzed in the cohorts followed in this investigation.
Subjects completing the treatment period received a full course of study medication; those completing the entire study attended visits through 8 weeks of follow up. Subjects who discontinued treatment may have done so for protocol specified reasons (e.g. development of clinically significant CMV infection requiring preemptive treatment with excluded anti-CMV medications) or for other reasons (e.g., withdrawal, adverse events, loss to follow-up). The disposition of subjects in Study HDP-CDV-201 during the double-blind, placebo-controlled treatment period (through Week 11) is listed by dosing Cohort in TABLE 23.
Adverse events were examined by severity to ensure that all safety signals were identified in this study population. Because of the frequency of events in HSCT recipients, particular attention was given to evaluation of Grade 3 […], 4 (severe), and 5 (fatal) adverse events.
Only those preferred terms for which at least one Grade 3 or higher event was experienced in any treatment group are listed. Cytomegalovirus-related AEs are excluded from this analysis.
HDP-CDV is a lipid conjugate of CDV. Because CDV is known to have adverse effects on renal function and bone marrow, decreased GFR and persistent neutropenia were identified as AEs of special interest. Key renal and hematological (TABLE 30) laboratory parameters were measured and listed below by Study HDP-CDV-201 treatment groups. TABLE 30 includes abnormal levels of serum creatinine, neutrophils, platelets, WBCs, and hemoglobin and includes data at Screening and during the treatment period.
A common metric for unit based dosing of medications is by weight (mg/kg). When the distribution of weights was examined for all subjects participating in the study, the median was 78 kg and the lower 25th percentile weight was approximately 65 kg, which translates to a cut-off of ˜3 mg/kg for a 200 mg total weekly dose. Based upon this approach, a cut-off of 3 mg/kg was used to assess the frequency of diarrhea and associated GI AEs reported for the subjects in Cohorts 3 or 4a (TABLE 40).

CCCCCCCCCCCCCCCCOCCCOP(=O)(O)COC(CO)Cn1ccc(N)nc1=O (stereo not drawn) [HDP-CDV]
Abnormal ALT >3-5x ULN, Screening, subjects (Cohort 3, >3.0 mg/kg/wk): 0 | Abnormal ALT >5-10x ULN, Any Time Between Week 2 and Week 10, subjects (Cohort 3, >3.0 mg/kg/wk): 0 | Abnormal ALT >5-10x ULN, Screening, subjects (Cohort 3, >3.0 mg/kg/wk): 0 | Abnormal ALT >10-20x ULN, Any Time Between Week 2 and Week 10, subjects (Cohort 3, >3.0 mg/kg/wk): 0 | Abnormal ALT >10-20x ULN, Screening, subjects (Cohort 3, >3.0 mg/kg/wk): 0 | Abnormal ALT >20x ULN, Any Time Between Week 2 and Week 10, subjects (Cohort 3, >3.0 mg/kg/wk): 0 | Abnormal ALT >20x ULN, Screening, subjects (Cohort 3, >3.0 mg/kg/wk): 0 | Abnormal ALT >3-5x ULN, Any Time Between Week 2 and Week 10, subjects (Cohort 3, ≦3.0 mg/kg/wk): 3 (12.5%) | Abnormal ALT >3-5x ULN, Screening, subjects (Cohort 3, ≦3.0 mg/kg/wk): 0 | Abnormal ALT >5-10x ULN, Any Time Between Week 2 and Week 10, subjects (Cohort 3, ≦3.0 mg/kg/wk): 5 (20.8%) | Abnormal ALT >5-10x ULN, Screening, subjects (Cohort 3, ≦3.0 mg/kg/wk): 0 | Abnormal ALT >10-20x ULN, Any Time Between Week 2 and Week 10, subjects (Cohort 3, ≦3.0 mg/kg/wk): 0 | Abnormal ALT >10-20x ULN, Screening, subjects (Cohort 3, ≦3.0 mg/kg/wk): 0 | Abnormal ALT >20x ULN, Any Time Between Week 2 and Week 10, subjects (Cohort 3, ≦3.0 mg/kg/wk): 1 (4.2%) | Abnormal ALT >20x ULN, Screening, subjects (Cohort 3, ≦3.0 mg/kg/wk): 0 | Grade of hepatobiliary AE hepatomegaly, subject 4019 (Cohort 4): 1 | Grade of hepatobiliary AE hyperbilirubenemia, subject 4001 (Cohort 4): 2 | Grade of hepatobiliary AE hyperbilirubinemia, subject 4014 (Cohort 4): 4 | Grade of hepatobiliary AE hyperbilirubinemia, subject 4041 (Cohort 4): 1 | Grade of hepatobiliary AE jaundice, subject 4002 (Cohort 4): 1 | Grade of hepatobiliary AE worsening hyperbilirubinemia, subject 4004 (Cohort 4): 1 | Outcome of hepatobiliary AE hepatomegaly, subject 4019 (Cohort 4): recovered/resolved | Outcome of hepatobiliary AE hyperbilirubenemia, subject 4001 (Cohort 4): not recovered/not | Outcome of hepatobiliary AE hyperbilirubinemia, subject 4014 (Cohort 4): not recovered/not | Outcome of hepatobiliary AE hyperbilirubinemia, subject 4041 (Cohort 4): recovered/resolved | Outcome of hepatobiliary AE jaundice, subject 4002 (Cohort 4): not recovered/not | Outcome of hepatobiliary AE worsening hyperbilirubinemia, subject 4004 (Cohort 4): recovered/resolved | Relationship of hepatobiliary AE hepatomegaly, subject 4019 (Cohort 4): not related | Relationship of hepatobiliary AE hyperbilirubenemia, subject 4001 (Cohort 4): not related | Relationship of hepatobiliary AE hyperbilirubinemia, subject 4014 (Cohort 4): not related | Relationship of hepatobiliary AE hyperbilirubinemia, subject 4041 (Cohort 4): not related | Relationship of hepatobiliary AE jaundice, subject 4002 (Cohort 4): not related | Relationship of hepatobiliary AE worsening hyperbilirubinemia, subject 4004 (Cohort 4): not related | subjects discontinued due to neutropenia (Cohort 4): 0 subject(s) | ALT (Screening) >3 × ULN-5 × ULN, subjects (Cohort 4, 200 mg BIW): 2 (6.7%) | ALT (Screening) >5 × ULN-10 × ULN, subjects (Cohort 4, 200 mg BIW): 2 (6.7%) | ALT (Screening) >10 × ULN-20 × ULN, subjects (Cohort 4, 200 mg BIW): 0 | ALT (Screening) >20 × ULN, subjects (Cohort 4, 200 mg BIW): 0 | ALT (any time during therapy) >3 × ULN-5 × ULN, subjects (Cohort 4, 200 mg BIW): 4 (13.8%) | ALT (any time during therapy) >5 × ULN-10 × ULN, subjects (Cohort 4, 200 mg BIW): 6 (20.7%) | ALT (any time during therapy) >10 × ULN-20 × ULN, subjects (Cohort 4, 200 mg BIW): 2 (6.9%) | ALT (any time during therapy) >20 × ULN, subjects (Cohort 4, 200 mg BIW): 0 | AST (Screening) >3 × ULN-5 × ULN, subjects (Cohort 4, 200 mg BIW): 1 (3.3%) | AST (Screening) >5 × ULN-10 × ULN, subjects (Cohort 4, 200 mg BIW): 0 | AST (Screening) >10 × ULN-20 × ULN, subjects (Cohort 4, 200 mg BIW): 0 | AST (Screening) >20 × ULN, subjects (Cohort 4, 200 mg BIW): 0 | AST (any time during therapy) >3 × ULN-5 × ULN, subjects (Cohort 4, 200 mg BIW): 6 (20.7%) | AST (any time during therapy) >5 × ULN-10 × ULN, subjects (Cohort 4, 200 mg BIW): 0 | AST (any time during therapy) >10 × ULN-20 × ULN, subjects (Cohort 4, 200 mg BIW): 0 | AST (any time during therapy) >20 × ULN, subjects (Cohort 4, 200 mg BIW): 0 | Alkaline Phosphatase (Screening) >2.5-5.0 × ULN, subjects (Cohort 4, 200 mg BIW): 0 | Alkaline Phosphatase (Screening) >5.0-20.0 × ULN, subjects (Cohort 4, 200 mg BIW): 0 | Alkaline Phosphatase (Screening) >20.0 × ULN, subjects (Cohort 4, 200 mg BIW): 0 | Alkaline Phosphatase (Screening) >ULN-[…] ULN, subjects (Cohort 4, 200 mg BIW): 7 (23.3%) | Alkaline Phosphatase (any time during therapy) >2.5-5.0 × ULN, subjects (Cohort 4, 200 mg BIW): 0 | Alkaline Phosphatase (any time during therapy) >5.0-20.0 × ULN, subjects (Cohort 4, 200 mg BIW): 0 | Alkaline Phosphatase (any time during therapy) >20.0 × ULN, subjects (Cohort 4, 200 mg BIW): 0 | Alkaline Phosphatase (any time during therapy) >ULN-[…] ULN, subjects (Cohort 4, 200 mg BIW): 11 (37.9%) | GI AE Leading to Study Drug Discontinuation: Abdominal pain, subjects (Cohort 4, 200 mg BIW): 1 (3.3%) | GI AE Leading to Study Drug Discontinuation: Diarrhoea, subjects (Cohort 4, 200 mg BIW): 7 (23.3%) | GI AE Leading to Study Drug Discontinuation: Dyspepsia, subjects (Cohort 4, 200 mg BIW): 0 | GI AE Leading to Study Drug Discontinuation: Nausea, subjects (Cohort 4, 200 mg BIW): 1 (3.3%) | GI AE Leading to Study Drug Discontinuation: Vomiting, subjects (Cohort 4, 200 mg BIW): 0 | GI AEs Leading to Study Drug Discontinuation: Total subjects discontinued (Cohort 4, 200 mg BIW): 9 (30.0%) | Gastrointestinal AE Abdominal discomfort, subjects (Cohort 4, 200 mg BIW): 0 | Gastrointestinal AE Abdominal distention, subjects (Cohort 4, 200 mg BIW): 1 (3.3%) | Gastrointestinal AE Abdominal pain upper, subjects (Cohort 4, 200 mg BIW): 3 (10.0%) | Gastrointestinal AE Abdominal pain, subjects (Cohort 4, 200 mg BIW): 11 (36.7%) | Gastrointestinal AE Constipation, subjects (Cohort 4, 200 mg BIW): 3 (10.0%) | Gastrointestinal AE Diarrhoea, subjects (Cohort 4, 200 mg BIW): 21 (70.0%) | Gastrointestinal AE Diverticulum intestinal haemorragic, subjects (Cohort 4, 200 mg BIW): 0 | Gastrointestinal AE Dyspepsia, subjects (Cohort 4, 200 mg BIW): 1 (3.3%) | Gastrointestinal AE Dysphagia, subjects (Cohort 4, 200 mg BIW): 0 | Gastrointestinal AE Epigastric discomfort, subjects (Cohort 4, 200 mg BIW): 0 | Gastrointestinal AE Flatulence, subjects (Cohort 4, 200 mg BIW): 3 (10.0%) | Gastrointestinal AE GERD, subjects (Cohort 4, 200 mg BIW): 2 (6.7%) | Gastrointestinal AE Gastritis, subjects (Cohort 4, 200 mg BIW): 0 | Gastrointestinal AE Haematochezia, subjects (Cohort 4, 200 mg BIW): 0 | Gastrointestinal AE Haemorroids, subjects (Cohort 4, 200 mg BIW): 2 (6.7%) | Gastrointestinal AE Large intestinal ulcer, subjects (Cohort 4, 200 mg BIW): 0 | Gastrointestinal AE Nausea, subjects (Cohort 4, 200 mg BIW): 11 (36.7%) | Gastrointestinal AE Odynophagia, subjects (Cohort 4, 200 mg BIW): 1 (3.3%) | Gastrointestinal AE Oesophagitis, subjects (Cohort 4, 200 mg BIW): 0 | Gastrointestinal AE Retching, subjects (Cohort 4, 200 mg BIW): 0 | Gastrointestinal AE Vomiting, subjects (Cohort 4, 200 mg BIW): 8 (26.7%) | Hepatobiliary clinical AE Cholelithiasis, subjects (Cohort 4, 200 mg BIW): 0 | Hepatobiliary clinical AE Hepatomegaly, subjects (Cohort 4, 200 mg BIW): 1 (3.3%) | Hepatobiliary clinical AE Hyperbilirubinaemia, subjects (Cohort 4, 200 mg BIW): 5 (16.7%) | Hepatobiliary clinical AE Jaundice, subjects (Cohort 4, 200 mg BIW): 1 (3.3%) | Hepatobiliary clinical AE Liver injury, subjects (Cohort 4, 200 mg BIW): 1 (3.3%) | Intensity of Gastrointestinal AEs, Grade 1, subjects (Cohort 4, 200 mg BIW): 3 (10.0%) | Intensity of Gastrointestinal AEs, Grade 2, subjects (Cohort 4, 200 mg BIW): 13 (43.3%) | Intensity of Gastrointestinal AEs, Grade 3, subjects (Cohort 4, 200 mg BIW): 10 (33.3%) | Intensity of Gastrointestinal AEs, Grade 4, subjects (Cohort 4, 200 mg BIW): 0 | Intensity of Gastrointestinal AEs, Grade 5, subjects (Cohort 4, 200 mg BIW): 1 (3.3%) | Serum ALT level, Median fold increase from Baseline at Follow-up Week 1 (Cohort 4, 200 mg BIW): 1.87 fold | Serum ALT level, Median fold increase from Baseline at Follow-up Week 4 (Cohort 4, 200 mg BIW): 1.34 fold | Serum ALT level, Peak Median fold increase from Baseline (Cohort 4, 200 mg BIW): 3.55 fold | Subjects completed study (Cohort 4, 200 mg BIW): 6 (20.0%) n (%) | Total Bilirubin (Screening) >1-[…] ULN, subjects (Cohort 4, 200 mg BIW): 1 (3.3%) | Total Bilirubin (Screening) >1.5-3 × ULN, subjects (Cohort 4, 200 mg BIW): 0 | Total Bilirubin (Screening) >3-10 × ULN, subjects (Cohort 4, 200 mg BIW): 0 | Total Bilirubin (Screening) >10 × ULN, subjects (Cohort 4, 200 mg BIW): 0 | Total Bilirubin (any time during therapy) >1-[…] ULN, subjects (Cohort 4, 200 mg BIW): 3 (10.3%) | Total Bilirubin (any time during therapy) >1.5-3 × ULN, subjects (Cohort 4, 200 mg BIW): 1 (3.4%) | Total Bilirubin (any time during therapy) >3-10 × ULN, subjects (Cohort 4, 200 mg BIW): 1 (3.4%) | Total Bilirubin (any time during therapy) >10 × ULN, subjects (Cohort 4, 200 mg BIW): 0 | incidence of diarrhea (Cohort 4, 200 mg BIW): 70% | Abdominal pain leading to study drug withdrawal (Cohort 4, 200 mg BIW, N = 30): 1 (3.3%) | All AEs leading to withdrawal (Cohort 4, 200 mg BIW, N = 30): 18 (60.0%) | Diarrhoea leading to study drug withdrawal (Cohort 4, 200 mg BIW, N = 30): 7 (23.3%)
